# Test results as given in ChEMBL document CHEMBL4219178, “Synthesis of (aminoalkyl)cycleanine analogues: cytotoxicity, cellular uptake, and apoptosis induction in ovarian cancer cells” (Bioorg Med Chem Lett, 2018).
# The source made the active and inactive calls. No cut-off for these calls is given here.
# Tests used:
# [1] = test system: OVCAR-8; assay: Antiproliferative activity against human OVCAR8 cells after 72 hrs by SRB assay; assay type: functional, cell-based; conditions: OVCAR-8, 72 h
# [2] = test system: A2780; assay: Antiproliferative activity against human A2780 cells after 72 hrs by SRB assay; assay type: functional, cell-based; conditions: A2780, 72 h
# [3] = test system: IGROV-1; assay: Antiproliferative activity against human IGROV1 cells after 72 hrs by SRB assay; assay type: functional, cell-based; conditions: IGROV-1, 72 h
# [4] = Cytotoxicity against human ovarian epithelial cells assessed as reduction in cell viability after 72 hrs by SRB assay; assay type: cell-based
# [5] = test system: OVCAR-8; assay: Induction of apoptosis in human OVCAR8 cells assessed as cell shrinkage at 10 to 20 uM incubated for 24 to 48 hrs by phase contrast light microscopy; assay type: functional, cell-based
# [6] = test system: OVCAR-8; assay: Induction of apoptosis in human OVCAR8 cells assessed as cell detachment at 10 to 20 uM incubated for 24 to 48 hrs by phase contrast light microscopy; assay type: functional, cell-based
# [7] = test system: OVCAR-8; assay: Induction of apoptosis in human OVCAR8 cells assessed as nucleus condensation at 10 to 20 uM incubated for 24 to 48 hrs by phase contrast light microscopy; assay type: functional, cell-based
# [8] = test system: A2780; assay: Induction of apoptosis in human A2780 cells assessed as induction of caspase 3/7 activity at 20 uM incubated for 48 hrs by caspase-Glo 3/7 reagent based luminescence assay; assay type: functional, cell-based
# [9] = test system: OVCAR-8; assay: Induction of apoptosis in human OVCAR8 cells assessed as induction of caspase 3/7 activity at 20 uM incubated for 48 hrs by caspase-Glo 3/7 reagent based luminescence assay; assay type: functional, cell-based
# [10] = test system: IGROV-1; assay: Induction of apoptosis in human IGROV1 cells assessed as induction of caspase 3/7 activity at 20 uM incubated for 48 hrs by caspase-Glo 3/7 reagent based luminescence assay; assay type: functional, cell-based
# [11] = test system: OVCAR-8; assay: Induction of apoptosis in human OVCAR8 cells assessed as induction of PARP-1 cleavage at 20 uM after 48 hrs by Western blot; assay type: functional, cell-based
# [12] = test system: OVCAR-8; assay: Induction of apoptosis in human OVCAR8 cells assessed as early apoptotic cells at 20 uM after 48 hrs by Annexin V-FITC/propidium iodide based flow cytometry (reference value: 4%); assay type: functional
# [13] = test system: OVCAR-8; assay: Induction of apoptosis in human OVCAR8 cells assessed as late apoptotic cells at 20 uM after 48 hrs by Annexin V-FITC/propidium iodide based flow cytometry (reference value: 5%); assay type: functional
# [14] = test system: OVCAR-8; assay: Induction of apoptosis in human OVCAR8 cells assessed as viable cells at 20 uM after 48 hrs by Annexin V-FITC/propidium iodide based flow cytometry (reference value: 84%); assay type: functional; conditions: OVCAR-8, 48 h, read-out: Activity
# [15] = test system: OVCAR-8; assay: Cell cycle arrest in human OVCAR8 cells assessed as accumulation at subG1 phase at 20 uM after 48 hrs by propidium iodide based flow cytometry; assay type: functional
# [16] = test system: OVCAR-8; assay: Cell cycle arrest in human OVCAR8 cells assessed as decrease in G0/G1 phase at 20 uM after 48 hrs by propidium iodide based flow cytometry; assay type: functional
# [17] = Drug uptake in human OVCAR8 cells at 20 uM after 48 hrs by Alexa 488 azide dye-based confocal fluorescence microscopy; assay type: ADME, cell-based; conditions: ovcar-8, 48 h
# [18] = Selectivity index, ratio of IC50 for human ovarian epithelial cells to IC50 for human OVCAR8 cells; assay type: toxicity; conditions: human ovarian epithelial cells versus OVCAR8 cells, read-out: Ratio IC50
# [19] = Selectivity index, ratio of IC50 for human ovarian epithelial cells to IC50 for human A2780 cells; assay type: toxicity; conditions: human ovarian epithelial cells versus A2780 cells, read-out: Ratio IC50
# [20] = Selectivity index, ratio of IC50 for human ovarian epithelial cells to IC50 for human IGROV1 cells; assay type: toxicity; conditions: human ovarian epithelial cells versus IGROV1 cells, read-out: Ratio IC50
SMILES,IC50 [1] [µM],IC50 [2] [µM],IC50 [3] [µM],IC50 [4] [µM],Activity [5],Activity [6],Activity [7],Activity [8],Activity [9],Activity [10],Activity [11],Activity [12] [%],Activity [13] [%],viability at 20 µM [14] [%],Activity [15],Activity [16],Drug uptake [17],selectivity ratio [18],selectivity ratio [19],selectivity ratio [20]
C#CCNCc1c2c3c(c(OC)c1OC)Oc1ccc(cc1)C[C@@H]1c4c(cc(OC)c(OC)c4Oc4ccc(cc4)C[C@H]3N(C)CC2)CCN1C,5.6,6.3,6.1,32,Active,Active,Active,Active,Active,Active,Active,11,38,50,Active,Active,Active,6,5,5
COc1cc2c3c(c1OC)Oc1ccc(cc1)C[C@@H]1c4c(c(CN(C)C)c(OC)c(OC)c4Oc4ccc(cc4)C[C@H]3N(C)CC2)CCN1C,5.2,3.6,4.4,10,Active,Active,Active,Active,Active,Active,Active,13,25,51,Active,Active,,2,3,2
COc1cc2c3c(c1OC)Oc1ccc(cc1)C[C@@H]1c4c(cc(OC)c(OC)c4Oc4ccc(cc4)C[C@H]3N(C)CC2)CCN1C,10,7.6,14,35,,,,,,,,,,,,,Not Active,3,5,3
